Several values for one entry are separate records, joined by “and”; a condition that tells them apart may be missing. Equal entries are not always repeated. Toxic doses and inconclusive results are not listed.
Tested on: P388 leukemia ip, CD2F1 mice, survival T/C
Experiment: NCI In Vivo Anticancer Drug Screen. Data for tumor model P388 Leukemia (intraperitoneal) in CD2F1 (CDF1) mice
Conditions: endpoint: median survival time, higher = longer survival
Summary of the method: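 Mice carrying the transplanted tumor received test compound or vehicle. Survival was recorded in each group, and the value is the treated-group measurement divided by that of the vehicle-treated control group.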

[1] = dose: 60.0 mg/kg/injection, schedule: Q01DX005 (ip), vehicle: saline with Tween-80
[2] = dose: 120.0 mg/kg/injection, schedule: Q01DX005 (ip), vehicle: saline with Tween-80
[3] = dose: 240.0 mg/kg/injection, schedule: Q01DX005 (ip), vehicle: saline with Tween-80
[4] = dose: 50.0 mg/kg/injection, schedule: Q01DX005 (ip), vehicle: saline with Tween-80
[5] = dose: 12.5 mg/kg/injection, schedule: Q01DX009 (ip), vehicle: saline with Tween-80
[6] = dose: 25.0 mg/kg/injection, schedule: Q01DX009 (ip), vehicle: saline with Tween-80
[7] = dose: 50.0 mg/kg/injection, schedule: Q01DX009 (ip), vehicle: saline with Tween-80
[8] = dose: 50.0 mg/kg/injection, schedule: Q01DX005 (ip), vehicle: Klucel (hydroxypropylcellulose) (HPC)
[9] = dose: 100.0 mg/kg/injection, schedule: Q01DX005 (ip), vehicle: Klucel (hydroxypropylcellulose) (HPC)

## Cn1c(=O)c(C#N)c2n(C)c3ccccc3n2c1=O
[1]
  T/C: 93 % of control
[2]
  T/C: 89 % of control
[3]
  T/C: 89 % of control

## O=C(NCc1cc(CNC(=O)c2cccc(O)c2O)cc(CNC(=O)c2cccc(O)c2O)c1)c1cccc(O)c1O
dose: 12.5 mg/kg/injection, schedule: Q01DX005 (ip), vehicle: saline with Tween-80
  T/C: 93 % of control
dose: 25.0 mg/kg/injection, schedule: Q01DX005 (ip), vehicle: saline with Tween-80
  T/C: 102 % of control
[4]
  T/C: 99 % of control and 107 % of control

## CC(C)CC(NC(=O)C(CCCCN)N(C(=O)OCc1ccccc1)C(=O)OCc1ccccc1)C(=O)O (stereo not drawn)
[4]
  T/C: 99 % of control
dose: 100.0 mg/kg/injection, schedule: Q01DX005 (ip), vehicle: saline with Tween-80
  T/C: 99 % of control
dose: 200.0 mg/kg/injection, schedule: Q01DX005 (ip), vehicle: saline with Tween-80
  T/C: 90 % of control

## ClCc1cccc2c(CCl)cccc12
[5]
  T/C: 113 % of control
[6]
  T/C: 110 % of control and 124 % of control
[7]
  T/C: 121 % of control

## CC1(C)OC2OC3C(O)C(=O)OC3C2O1 (stereo not drawn)
dose: 60.0 mg/kg/injection, schedule: Q01DX005 (ip), vehicle: saline
  T/C: 107 % of control
dose: 120.0 mg/kg/injection, schedule: Q01DX005 (ip), vehicle: saline
  T/C: 97 % of control
dose: 240.0 mg/kg/injection, schedule: Q01DX005 (ip), vehicle: saline
  T/C: 99 % of control

## c1cc(-c2cc3cc(C4=NCCN4)ccc3s2)ccc1C1=NCCN1
dose: 25.0 mg/kg/injection, schedule: Q04DX003 (ip), vehicle: saline
  T/C: 115 % of control
dose: 50.0 mg/kg/injection, schedule: Q04DX003 (ip), vehicle: saline
  T/C: 111 % of control
dose: 100.0 mg/kg/injection, schedule: Q04DX003 (ip), vehicle: saline
  T/C: 98 % of control

## CCOC(=O)C(Nc1cc([N+](=O)[O-])ccc1C(=O)OC(C)C)(OC(C)C)C(=O)OCC
dose: 100.0 mg/kg/injection, schedule: Q04DX002 (ip), vehicle: Klucel (hydroxypropylcellulose) (HPC)
  T/C: 90 % of control
dose: 200.0 mg/kg/injection, schedule: Q04DX002 (ip), vehicle: Klucel (hydroxypropylcellulose) (HPC)
  T/C: 91 % of control
dose: 400.0 mg/kg/injection, schedule: Q04DX002 (ip), vehicle: Klucel (hydroxypropylcellulose) (HPC)
  T/C: 90 % of control

## CNP1(NC)=N[P@@](NC)(N2CC2)=NP(NC)(N2CC2)=N1 (stereo partly drawn)
dose: 1.87 mg/kg/injection, schedule: Q01DX005 (ip), vehicle: saline
  T/C: 102 % of control
dose: 7.5 mg/kg/injection, schedule: Q01DX005 (ip), vehicle: saline
  T/C: 158 % of control and 185 % of control
dose: 15.0 mg/kg/injection, schedule: Q01DX005 (ip), vehicle: saline
  T/C: 171 % of control and 227 % of control

## CC(C)NCC(O)COc1cccc2[nH]c3ccccc3c12 (stereo not drawn)
[6]
  T/C: 99 % of control
[7]
  T/C: 96 % of control

## CC(C)=CCCC(C)C1(O)CCC(C)=CC1=O (stereo not drawn)
dose: 12.5 mg/kg/injection, schedule: Q01DX005 (ip), vehicle: Klucel (hydroxypropylcellulose) (HPC)
  T/C: 96 % of control
dose: 25.0 mg/kg/injection, schedule: Q01DX005 (ip), vehicle: Klucel (hydroxypropylcellulose) (HPC)
  T/C: 99 % of control
[8]
  T/C: 94 % of control
[9]
  T/C: 99 % of control

## COc1ccc(/C=C(\C(C)=O)C(=O)CCN(C)C)cc1
dose: 50.0 mg/kg/injection, schedule: Q01DX005 (ip), vehicle: saline
  T/C: 95 % of control
dose: 100.0 mg/kg/injection, schedule: Q01DX005 (ip), vehicle: saline
  T/C: 105 % of control
dose: 200.0 mg/kg/injection, schedule: Q01DX005 (ip), vehicle: saline
  T/C: 115 % of control

## OCC(O)C(O)Cc1cnc(C(O)C(O)C(O)CO)cn1 (stereo not drawn)
dose: 50.0 mg/kg/injection, schedule: Q01DX009 (ip), vehicle: other
  T/C: 93 % of control
dose: 100.0 mg/kg/injection, schedule: Q01DX009 (ip), vehicle: other
  T/C: 96 % of control
dose: 200.0 mg/kg/injection, schedule: Q01DX009 (ip), vehicle: other
  T/C: 102 % of control
dose: 400.0 mg/kg/injection, schedule: Q01DX009 (ip), vehicle: other
  T/C: 108 % of control
dose: 800.0 mg/kg/injection, schedule: Q01DX009 (ip), vehicle: other
  T/C: 102 % of control

## C[N+](C)(C)CCOS(C)(=O)=O
dose: 1.56 mg/kg/injection, schedule: Q01DX009 (ip), vehicle: Klucel (hydroxypropylcellulose) (HPC)
  T/C: 90 % of control and 93 % of control
dose: 1.56 mg/kg/injection, schedule: Q01DX009 (ip), vehicle: saline
  T/C: 101 % of control
dose: 3.13 mg/kg/injection, schedule: Q01DX009 (ip), vehicle: Klucel (hydroxypropylcellulose) (HPC)
  T/C: 99 % of control
dose: 3.13 mg/kg/injection, schedule: Q01DX009 (ip), vehicle: saline
  T/C: 111 % of control and 95 % of control
dose: 6.25 mg/kg/injection, schedule: Q01DX009 (ip), vehicle: Klucel (hydroxypropylcellulose) (HPC)
  T/C: 89 % of control (2×) and 94 % of control
dose: 6.25 mg/kg/injection, schedule: Q01DX009 (ip), vehicle: saline
  T/C: 90 % of control
dose: 12.5 mg/kg/injection, schedule: Q01DX009 (ip), vehicle: saline
  T/C: 92 % of control

## CN(C=O)c1cc2c3c(c1)CCCN3CCC2
[5]
  T/C: 109 % of control
dose: 12.5 mg/kg/injection, schedule: Q04DX003 (ip), vehicle: saline with Tween-80
  T/C: 100 % of control
[6]
  T/C: 104 % of control
dose: 25.0 mg/kg/injection, schedule: Q04DX003 (ip), vehicle: saline with Tween-80
  T/C: 90 % of control
[7]
  T/C: 109 % of control
dose: 50.0 mg/kg/injection, schedule: Q04DX003 (ip), vehicle: saline with Tween-80
  T/C: 95 % of control

## CC(C)N(/C=C/C(=O)c1ccccc1)C(C)C
[5]
  T/C: 99 % of control
[6]
  T/C: 100 % of control
[7]
  T/C: 94 % of control and 95 % of control

## C=CCCCCCCCCCC(=O)C=C
dose: 2.75 mg/kg/injection, schedule: Q01DX005 (ip), vehicle: Klucel (hydroxypropylcellulose) (HPC)
  T/C: 98 % of control
dose: 5.5 mg/kg/injection, schedule: Q01DX005 (ip), vehicle: Klucel (hydroxypropylcellulose) (HPC)
  T/C: 99 % of control
dose: 11.0 mg/kg/injection, schedule: Q01DX005 (ip), vehicle: Klucel (hydroxypropylcellulose) (HPC)
  T/C: 92 % of control
dose: 22.0 mg/kg/injection, schedule: Q01DX005 (ip), vehicle: Klucel (hydroxypropylcellulose) (HPC)
  T/C: 92 % of control
dose: 44.0 mg/kg/injection, schedule: Q01DX005 (ip), vehicle: Klucel (hydroxypropylcellulose) (HPC)
  T/C: 91 % of control

## CN(C)C(=O)SC1=C(c2c(Cl)cccc2Cl)C(=O)c2ccccc21
[8]
  T/C: 108 % of control and 112 % of control
[9]
  T/C: 99 % of control and 112 % of control
dose: 200.0 mg/kg/injection, schedule: Q01DX005 (ip), vehicle: Klucel (hydroxypropylcellulose) (HPC)
  T/C: 121 % of control and 122 % of control

## COc1ccc(CSC(=S)Nc2ccc(Cl)c(C)c2)cc1
dose: 50.0 mg/kg/injection, schedule: Q01DX009 (ip), vehicle: suspension in saline
  T/C: 111 % of control
dose: 100.0 mg/kg/injection, schedule: Q01DX009 (ip), vehicle: suspension in saline
  T/C: 109 % of control
dose: 200.0 mg/kg/injection, schedule: Q01DX009 (ip), vehicle: suspension in saline
  T/C: 106 % of control

## C[C@@H]1CC=C[C@@H](NC(=O)OCc2ccccc2)[C@H]1C=O
[1]
  T/C: 103 % of control
[2]
  T/C: 99 % of control
[3]
  T/C: 98 % of control

## CCn1c(Cl)c(/C=C(/NC(=O)c2ccccc2)C(=O)O)c2ccccc21
dose: 100.0 mg/kg/injection, schedule: Q01DX001 (ip), vehicle: Klucel (hydroxypropylcellulose) (HPC)
  T/C: 100 % of control
dose: 200.0 mg/kg/injection, schedule: Q01DX001 (ip), vehicle: Klucel (hydroxypropylcellulose) (HPC)
  T/C: 94 % of control
dose: 400.0 mg/kg/injection, schedule: Q01DX001 (ip), vehicle: Klucel (hydroxypropylcellulose) (HPC)
  T/C: 94 % of control

## Nc1ccc2nc3ccccc3c(NCCCCCCCCNc3c4ccccc4nc4ccc(N)cc34)c2c1
dose: 2.5 mg/kg/injection, schedule: Q01DX009 (ip), vehicle: water
  T/C: 160 % of control
dose: 5.0 mg/kg/injection, schedule: Q01DX009 (ip), vehicle: water
  T/C: 160 % of control

From PubChem BioAssay AID330 (DTP/NCI, 2004)
